# Entries after “also recorded” stand apart in the source; their conditions may differ. Read-outs that look alike come from different tables or passages of the source.
# What was measured:
# [1] = Rat liver microsomes (RLM) in vitro metabolism; assay type: in vitro ADME; settings: Sprague-Dawley
# Procedure: (§1) Rat Liver Microsomes (RLM). Male Sprague-Dawley rat liver microsomes were purchased from XenoTech. The reaction mixture, minus NADPH, was prepared as described in Table 10. The test compound was added into the reaction mixture at a final concentration of 1 μM. The control compound, testosterone, was run simultaneously with the test compound in a separate reaction. The reaction mixture (without cofactor) was equilibrated in a shaking water bath at 37° C. for 5 minutes. The reaction was initiated by the addition of the cofactor, and the mixture was incubated in a shaking water bath at 37° C. Aliquots (150 μL) were withdrawn at 0, 5, 10, 20, 30, 60, and for some assays at 120 minutes. Test compound and testosterone samples were immediately combined with 150 μL of ice-cold acetonitrile (ACN) containing 0.1% formic acid and internal standard to terminate the reaction. The samples were then mixed and centrifuged to precipitate proteins. All samples were assayed by LC-MS/MS using electrospray ionization. The peak area response ratio (PARR) of analyte to internal standard at each time point was compared to the PARR at time 0 to determine the percent remaining at each time point. Half-lives were calculated using GraphPad software, fitting to a single-phase exponential decay equation.
# (§2) In a different series of reactions using RLM, a 10 mM stock solution of the test compound was prepared in DMSO. From this stock solution, an intermediate stock solution of 1 mM was prepared by diluting the compound in DMSO and from this intermediate stock solution, a working solution of 0.30 mM was prepared by diluting the compound in ACN:Water (50:50) as a cocktail of two compounds (i.e., 30 μL the non-deuterated and the deuterated compound in 40 μL diluent in 100 μL total volume). Following this, a master mix of rat liver microsomes (final concentration 0.5 mg/ml, Xenotech Cat #R1000; Lot #1610290) and 0.1 M potassium phosphate buffer was prepared and pre-incubated for 5 min at 37° C. The test compound mixture was then added to achieve a final test article concentration of 1 μM (for each analog if co-dosed; 0.2% DMSO); verapamil was used as a positive control. Subsequently, 10 mM NADPH prepared in 0.1 M potassium phosphate buffer was added (final concentration 1 mM) to initiate the reaction and samples were incubated at 37° C. for the desired time points (0, 5, 15, 30, 45, 60 min). At each time point, 40 μL of the samples were withdrawn and reactions were stopped using 200 μL chilled ACN containing 0.1% formic acid and internal standard carbamazepine (10 ng/mL). The samples were centrifuged, and the supernatant was analyzed by LC-MS/MS. The percent compound remaining at each time point was calculated with respect to that of the 0 min sample. The data were then analyzed to calculate half-life. Blank samples were prepared using DMSO (without the test compound).
# 5-HT2A receptor = target: T1, 5-HT2A receptor (Homo sapiens, UniProt P28223); test: 5-HT2A radioligand ([3H]LSD) competition binding; settings: for affinity at 5-HT2A receptors, comparison in words: [3H]LSD competition binding
# T1 construct: host or cells: HEK293 (ATCC CRL-1573), transient, membranes
# T1 sequence (P28223 whole entry): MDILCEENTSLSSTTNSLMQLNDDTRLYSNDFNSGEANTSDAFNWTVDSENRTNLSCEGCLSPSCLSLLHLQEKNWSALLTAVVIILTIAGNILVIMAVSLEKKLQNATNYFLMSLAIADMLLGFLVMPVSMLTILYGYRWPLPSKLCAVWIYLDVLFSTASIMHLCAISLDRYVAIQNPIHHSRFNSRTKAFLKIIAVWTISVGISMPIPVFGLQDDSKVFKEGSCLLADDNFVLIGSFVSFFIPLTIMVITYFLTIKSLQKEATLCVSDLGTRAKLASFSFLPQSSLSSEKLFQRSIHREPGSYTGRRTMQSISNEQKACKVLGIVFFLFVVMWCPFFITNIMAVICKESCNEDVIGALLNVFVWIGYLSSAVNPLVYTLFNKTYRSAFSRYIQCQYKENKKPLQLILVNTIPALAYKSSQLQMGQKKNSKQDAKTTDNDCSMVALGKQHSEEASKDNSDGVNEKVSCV
# Rat Liver Microsomes = test: Rat liver microsomes (RLM) in vitro metabolism; assay type: in vitro ADME; settings: for disappearance in RLM, NADPH dependence: result in words
# Procedure: as §1, §2
# MAO-B = target: T2, MAO-B (Homo sapiens, UniProt P27338); test: human MAO-B in vitro metabolism; assay type: in vitro ADME; settings: human MAO-B enzyme (Corning), test compound 1 μM, read-out: MAO-B t1/2
# T2 construct: purchased Corning 456284
# T2 sequence (P27338 1-520): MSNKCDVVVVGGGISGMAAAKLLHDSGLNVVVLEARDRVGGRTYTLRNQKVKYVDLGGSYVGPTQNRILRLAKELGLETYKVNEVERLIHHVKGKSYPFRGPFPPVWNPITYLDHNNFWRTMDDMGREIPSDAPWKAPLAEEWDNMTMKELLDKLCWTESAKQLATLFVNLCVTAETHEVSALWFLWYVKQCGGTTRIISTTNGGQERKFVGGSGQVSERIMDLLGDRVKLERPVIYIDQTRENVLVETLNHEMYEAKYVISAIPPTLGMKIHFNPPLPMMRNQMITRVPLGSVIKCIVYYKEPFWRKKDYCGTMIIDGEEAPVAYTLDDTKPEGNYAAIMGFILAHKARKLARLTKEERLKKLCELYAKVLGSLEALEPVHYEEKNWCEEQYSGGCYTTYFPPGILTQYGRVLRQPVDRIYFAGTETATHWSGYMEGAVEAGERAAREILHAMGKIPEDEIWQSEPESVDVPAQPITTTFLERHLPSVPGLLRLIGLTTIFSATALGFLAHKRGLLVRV
# Procedure: (§3) In a different series of reactions using human MAO-A and MAO-B, a 10 mM stock solution of the test compound was prepared in DMSO. From this stock solution, an intermediate stock solution of 1 mM was prepared by diluting the compound in DMSO and from this intermediate stock solution, a working solution of 0.30 mM was prepared by diluting the compound in ACN:Water (50:50) as cocktail of 2 compounds (30 μL each compound in 40 μL diluent for 100 μL). Following this, a master mix of 0.1 M potassium phosphate buffer and test compound mixture i.e., the non-deuterated and the deuterated analog, were prepared to achieve final drug concentration of 1 μM (0.2% DMSO) for the required number of reactions. The aforementioned master mix was pre-incubated at 37° C. for 5 min. To this master mix, MAO-A (final protein conc. 0.1 mg/mL; Corning Cat #456283; Lot #1173003) or MAO-B (final protein conc. 0.1 mg/mL; Corning Cat #456284; Lot #0318001) was added to initiate the reaction. The samples were then incubated at 37° C. for the desired time points. At each time point (0, 5, 15, 30, 45, 60), 40 μL of the samples were withdrawn and reactions were stopped using 200 μL chilled ACN containing 0.1% formic acid and internal standard Carbamazepine (10 ng/mL). The samples were centrifuged, and the supernatant was analyzed by LC-MS/MS. The percent compound remaining at each time point was calculated with respect to that of the 0 min sample. The data were then analyzed to calculate half-life and intrinsic clearance (CLint). Blank samples were prepared using DMSO (without the test compound).
# MAO-A = target: T3, MAO-A (Homo sapiens, UniProt P21397); test: Recombinant human MAO-A in vitro metabolism; assay type: in vitro ADME; settings: for half-life at 1 µM: human, recombinant human MAO-A
# T3 construct: purchased XenoTech (first series); Corning (second series) Corning 456283
# T3 sequence (P21397 1-527): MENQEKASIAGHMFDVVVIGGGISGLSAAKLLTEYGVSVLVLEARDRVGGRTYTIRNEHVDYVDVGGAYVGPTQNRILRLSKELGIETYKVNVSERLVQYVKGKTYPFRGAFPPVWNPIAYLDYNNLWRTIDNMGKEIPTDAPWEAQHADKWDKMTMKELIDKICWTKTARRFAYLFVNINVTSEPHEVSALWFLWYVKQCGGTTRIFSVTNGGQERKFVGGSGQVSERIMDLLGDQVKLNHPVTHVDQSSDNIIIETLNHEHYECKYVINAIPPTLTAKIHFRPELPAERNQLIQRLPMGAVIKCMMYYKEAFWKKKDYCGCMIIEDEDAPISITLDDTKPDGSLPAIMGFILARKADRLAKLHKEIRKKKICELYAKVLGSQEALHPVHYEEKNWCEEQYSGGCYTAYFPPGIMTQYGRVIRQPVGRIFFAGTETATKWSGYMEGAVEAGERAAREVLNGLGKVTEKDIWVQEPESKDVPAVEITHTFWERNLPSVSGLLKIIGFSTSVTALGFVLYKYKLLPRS
# Procedure: Recombinant human MAO-A. hrMAO-A and MAO control were purchased from XenoTech. The reaction mixture was prepared as described in Table 11. The test compound was added into the reaction mixture at a final concentration of 1 μM. The positive control kynuramine (25 μM) was run simultaneously with the test compound in a separate reaction. The reaction mixture (without test compounds or kynuramine) was equilibrated in a shaking water bath at 37° C. for 5 minutes. The reaction was initiated by the addition of the test compound or kynuramine, and the mixture was incubated in a shaking water bath at 37° C. Aliquots (150 μL) of the test compound reaction mixture were withdrawn at 0, 5, 10, 20, 30, 60, and for some assays at 120 minutes. Aliquots (150 μL) of the positive control reaction mixture were withdrawn at 0 and 30 minutes. Test compound and kynuramine samples were immediately combined with 150 μL of ice-cold 100% acetonitrile containing 0.1% formic acid and internal standard (0.2 μM metoprolol) to terminate the reaction. The samples were then mixed and centrifuged to precipitate proteins. All samples were assayed by LC-MS/MS. The peak area response ratio (PARR) of analyte to internal standard at each time point was compared to the PARR at time 0 to determine the percent remaining at each time point. Half-lives were calculated using GraphPad software, fitting to a single-phase exponential decay equation.
# as §3
# 5-HT2A (h) = target: T4, 5-HT2A (h) (Homo sapiens, UniProt P28223); settings: literature, single enantiomers, cited from earlier work; for EC50: read-out: Function 5-HT2A EC50
# T4 construct: expressed in transfected cells; host or cells: HEK-293 cells
# T4 sequence (P28223 whole entry): as the sequence (P28223 whole entry) above
# [2] = rat liver microsomes (Table 18), read-out: RLM t1/2
# [3] = pH 7.4, rat liver microsomes, test compound 1 μM, * = apparent NADPH independent reaction, read-out: RLM t1/2
# [4] = 1 μM test compound, read-out: half-life, MAO-A metabolism
# [5] = human recombinant MAO-A, test compound 1 μM, read-out: MAO-A t1/2
# [6] = rat liver microsomes (Table 17), read-out: RLM t1/2
smiles,measurement,setting,value
COc1cc(SC(F)(F)F)c(OC)cc1CC(C)N (racemic) [IV-1 (racemic)],half-life at 1 µM,[1]; [2],40.7 min
same,Ki,"5-HT2A receptor; agonist radioligand: [3H]LSD (Table 18), read-out: 5HT2A Ki",0.007 µM
"COc1cc(SC(F)(F)F)c(OC)cc1CC(C)N (racemic) [IV-1, 1-(2,5-dimethoxy-4-((trifluoromethyl)thio)phenyl)propan-2-amine]","stability / half-life in RLMs, comparison in words",Rat Liver Microsomes; compared with Reference Compound 2,greater stability in RLMs than Reference Compound 2
same,"affinity at 5-HT2A receptors, comparison in words",5-HT2A receptor,affinity at 5-HT2A receptors equal or superior to both enantiomers of Reference Compound 2
"[2H]C1([2H])Oc2ccc(CCN)cc2O1 [II-11, 2-(benzo[d][1,3]dioxol-5-yl-2,2-d2)ethan-1-amine]",half-life at 1 µM,[1]; [3],< 5 min
same,"disappearance in RLM, NADPH dependence",Rat Liver Microsomes,NADPH-independent
same,half-life at 1 µM,MAO-B,< 5 min
same,half-life at 1 µM,MAO-A; [4],≤ 8 min
same,half-life at 1 µM,MAO-A; [5],7.97 min
"[2H]C1([2H])Oc2cc(CCN)ccc2S1 [II-15, 2-(benzo[d][1,3]oxathiol-6-yl-2,2-d2)ethan-1-amine]",half-life at 1 µM,[1]; [3],< 5 min
same,half-life at 1 µM,MAO-B,< 5 min
same,half-life at 1 µM,MAO-A; [4],≤ 8 min
same,half-life at 1 µM,MAO-A; [5],4.42 min
"[2H]C1([2H])Oc2cc(CC(C)N)ccc2S1 (stereo not shown) [II-17, 1-(benzo[d][1,3]oxathiol-6-yl-2,2-d2)propan-2-amine]",half-life at 1 µM,[1]; [3],12.6 min
same,half-life at 1 µM,MAO-B,892 min
same,half-life at 1 µM,MAO-A; [5],> 120 min
same,stability in the presence of MAO-A,MAO-A; result in words,stable
"COc1cc(CCN)cc(OC)c1SC(F)(F)F [III-5, 2-(3,5-dimethoxy-4-((trifluoromethyl)thio)phenyl)ethan-1-amine]",half-life at 1 µM,"[1]; rat, rat liver microsomes, 1 μM test compound, read-out: half-life in the presence of rat liver microsome",> 120 min
same,RLM t1/2,Rat Liver Microsomes; rat liver microsomes (Table 17),>120 min
same,Ki,5-HT2A receptor,0.0016 µM
same,"affinity at 5-HT2A receptors, comparison in words",5-HT2A receptor,"superior affinity at 5-HT2A receptors compared to Reference Compound 1; also recorded: affinity equal to or better than classic 2,4,5-substituted 5-HT2A agonists, such as Reference Compounds 2-4"
same,Ki,"5-HT2A receptor; read-out: 5HT2A Ki at the low-affinity inactive state, [3H]LSD, two-site fit",0.676 µM
[2H]C([2H])([2H])Oc1cc(SC)c(OC([2H])([2H])[2H])cc1C[C@@H](C)N [IV-9 (R)],half-life at 1 µM,[1]; [2],16.6 min
same,Ki,5-HT2A receptor,0.026 µM
same,half-life at 1 µM,"MAO-A; Table 18, read-out: MAO-A t1/2",> 120 min
[2H]C([2H])([2H])Oc1cc(SC)c(OC([2H])([2H])[2H])cc1C[C@H](C)N [IV-9 (S)],half-life at 1 µM,[1]; [2],6.3 min
same,Ki,5-HT2A receptor,0.056 µM
same,half-life at 1 µM,"MAO-A; Table 18, read-out: MAO-A t1/2",> 120 min
C[C@@H](N)Cc1ccc2c(c1)OCO2 [R-MDA],Function 5-HT2A EMAX,5-HT2A (h),EMAX = 95%
same,EC50,5-HT2A (h),5.6 µM
COc1cc(SC)c(OC)cc1C[C@@H](C)N [Reference Compound 2 (R)],half-life at 1 µM,[1]; [6],16 min
same,Ki,5-HT2A receptor,0.007 µM
same,half-life at 1 µM,"MAO-A; Table 18, read-out: MAO-A t1/2",> 120 min
COc1cc(SC)c(OC)cc1C[C@H](C)N [Reference Compound 2 (S)],half-life at 1 µM,[1]; [6],6.34 min
same,Ki,5-HT2A receptor,0.018 µM
same,half-life at 1 µM,"MAO-A; Table 18, read-out: MAO-A t1/2",> 120 min
"COc1cc(SC)c(OC)cc1CCN [Reference Compound 3, 2-(2,5-dimethoxy-4-(methylthio)phenyl)ethan-1-amine, reference compound]",half-life at 1 µM,[1]; [6],6.09 min
"COc1cc(C(F)(F)F)c(OC)cc1CCN [Reference Compound 4, 2-(2,5-dimethoxy-4-(trifluoromethyl)phenyl)ethan-1-amine, reference compound]",half-life at 1 µM,[1]; [6],16.6 min
same,Ki,5-HT2A receptor,0.0034 µM
"NCCc1ccc2c(c1)OCO2 [Reference Compound 5, 3,4-Methylenedioxyphenethylamine, reference compound]",half-life at 1 µM,[1]; [3],< 5 min
same,"disappearance in RLM, NADPH dependence",Rat Liver Microsomes,NADPH-independent
same,half-life at 1 µM,MAO-B,7.91 min
same,half-life at 1 µM,MAO-A; [4],≤ 8 min
same,half-life at 1 µM,MAO-A; [5],8.34 min
C[C@H](N)Cc1ccc2c(c1)OCO2 [S-MDA],Function 5-HT2A EMAX,5-HT2A (h),EMAX = 89%
same,EC50,5-HT2A (h),18.2 µM
